Reference: publication PMC6602958, “Pharmacokinetics of anti-infectious reagents in silkworms” (Scientific Reports, 2019)
Read-outs that look alike come from different tables or passages of the source. *1 amine or outer side, *2 acyl side, *3 side chain or, on linkers, in order; H or OH if unused. Where a SMILES comes first, the peptide text is derived from it. Bridges are numbered along the chain shown (N, C = ends). [ ]: non-standard residue; d: D form. The star is where a group is joined. hTyr(3S-OH,4S-OH,3'-OSO3H) = N[C@H](C(=O)O)[C@H](O)[C@@H](O)c1ccc(O)c(OS(=O)(=O)O)c1; Orn(4R-OH,5R-OH) = O=C([C@H](C[C@@H](O)[C@@H](O)N[*:3])N[*:1])[*:2]; Pro(3S-OH,4S-Me) = C[C@H]1CN[C@H](C(=O)O)[C@H]1O; X1 = CCCCCOc1ccc(-c2cc(-c3ccc(C(=O)*)cc3)no2)cc1; Gln(3R-OH) = NC(=O)C[C@@H](O)[C@H](N)C(=O)O; Hyp = O=C(O)[C@@H]1C[C@@H](O)CN1

Assays:
[1] = Pharmacokinetics of antibiotics in silkworm hemolymph after injection (HPLC); conditions: for HPLC peak area in hemolymph: raw data of Fig. 1; for Time-course of the decrease in concentration in hemolymph (in words): after administration into hemolymph, alpha and beta phase; for Time-course of the decrease in concentration in hemolymph (in words) / Cltot (total body clearance): two-compartment model; for half-life: in vivo; for Cltot (total body clearance): silkworm, injection into hemolymph, dose per compound 10-50 mg/kg
Method: Antibiotics were injected into silkworm hemolymph and hemolymph was collected by cutting the legs at the indicated time.
Antibiotics dissolved in saline were injected into the hemolymph of 5th instar silkworms using a 1-mL syringe attached to a 27 G needle. Hemolymph was harvested from abdominal appendages by cutting them with scissors at the indicated time-points after administration, and mixed with an equal volume of acetone. Samples were centrifuged at 15,000 rpm for 5 min at 4 °C, and the supernatants were evaporated with a centrifuge evaporator[18]. The dried materials were dissolved in 50% methanol and filtrated through a 0.45-µm filter. […] The amount of antibiotics in the sample was quantified from the peak area of the chromatogram.

[2] = parameters: method as in PMID 15256761; conditions: rat, dose 1 mg/kg; cited from earlier work
cytochrome P450 [3] = assay: Metabolism of luciferin derivatives in cultured silkworm midgut (P450-Glo, luminometer); type: in vitro ADME, Bombyx mori (silkworm); conditions: silkworm midgut incubated with luciferin substrate at 30 °C
cytochrome P450 [4] = assay: Decay of cytochrome P450 substrates in in vitro culture of the silkworm midgut (HPLC)
Method: Silkworm midgut was incubated in medium with cytochrome P450 substrates at 30 °C. The samples were collected, extracted by acetone, and evaporated. The amounts of substrates were determined by HPLC analysis.
Silkworms (5th instar, 5 days) were dissected in a buffer (10 mM HEPES/NaOH, 0.9% NaCl, pH 7.9), and isolated organs were incubated with 3 mL TC-100 medium containing 10% fetal bovine serum, 50 µg/ml gentamicin, and substrates for the metabolic reaction. Whole samples (medium and organ) were homogenized and extracted by equal volumes of acetone followed by evaporation. Extracted samples were dissolved in 50 mM NaOAc buffer and treated with beta-glucosidase to measure the fluorescence of metabolized 7-ethoxycoumarin[6]. […] Samples for HPLC were dissolved in 50% methanol. HPLC analysis was performed using a PEGASIL ODS SP column (φ4.5 mm × 250 mm) with isocratic elution at a flow rate of 1 ml/min.

[5] = mammal, dose 8 mg/kg; cited from earlier work
[6] = midgut culture, 0 h, raw data of Fig. 3
[7] = midgut culture, 1 h, raw data of Fig. 3
[8] = midgut culture, 4 h, raw data of Fig. 3
[9] = midgut culture, 20 h, raw data of Fig. 3

CCCCCOc1ccc(-c2cc(-c3ccc(C(=O)N[C@H]4C[C@@H](O)[C@@H](O)NC(=O)[C@@H]5[C@@H](O)[C@@H](C)CN5C(=O)[C@H]([C@H](O)CC(N)=O)NC(=O)[C@H]([C@H](O)[C@@H](O)c5ccc(O)c(OS(=O)(=O)O)c5)NC(=O)[C@@H]5C[C@@H](O)CN5C(=O)[C@H]([C@@H](C)O)NC4=O)cc3)no2)cc1 [Micafungin] (X1-[Orn(4R-OH,5R-OH)]T[Hyp][hTyr(3S-OH,4S-OH,3'-OSO3H)][Gln(3R-OH)][Pro(3S-OH,4S-Me)]; lactam 1-C)
HPLC peak area in hemolymph ([1]; 1 min after injection): 2078182
HPLC peak area in hemolymph ([1]; 5 min after injection): 1273864
HPLC peak area in hemolymph ([1]; 20 min after injection): 874882
HPLC peak area in hemolymph ([1]; 45 min after injection): 1057083
HPLC peak area in hemolymph ([1]; 60 min after injection): 1430059
HPLC peak area in hemolymph ([1]; 75 min after injection): 1093500
HPLC peak area in hemolymph ([1]; 90 min after injection): 1117482
HPLC peak area in hemolymph ([1]; 120 min after injection): 1017294
HPLC peak area in hemolymph ([1]; 150 min after injection): 1043908
HPLC peak area in hemolymph ([1]; 180 min after injection): 936752
HPLC peak area in hemolymph ([1]; 240 min after injection): 1002362
HPLC peak area in hemolymph ([1]; 360 min after injection): 970304
Time-course of the decrease in concentration in hemolymph (in words) [1]: biphasic
half-life [1]: 12 h
Cltot (total body clearance) [1]: 0.03 mL/g/h
Cltot [2]: 0.07 mL/g/h
Vdss [2]: 0.4 mL/g
t1/2 [2]: 5.0 h

CC(C)OC(OC(C)C)C1CSC(c2nc3ccc(O)cc3s2)=N1 (centres unmarked) [Luciferin-IPA]
Production of luciferin (RFU/organ) (cytochrome P450 [3]): 198,000 RFU/organ

O=C(O)Cc1ccccc1Nc1c(Cl)cccc1Cl [Diclofenac]
Metabolism in the silkworm midgut (in words) (cytochrome P450 [4]): metabolized in the silkworm midgut
HPLC peak area of substrate (cytochrome P450 [4]; silkworm (Bombyx mori), 0 h): 2620000
HPLC peak area of substrate (cytochrome P450 [4]; silkworm (Bombyx mori), 1 h): 2450000
HPLC peak area of substrate (cytochrome P450 [4]; silkworm (Bombyx mori), 4 h): 2250000
HPLC peak area of substrate (cytochrome P450 [4]; silkworm (Bombyx mori), 20 h): 1370000

CN[C@H](CC(C)C)C(=O)N[C@H]1C(=O)N[C@@H](CC(N)=O)C(=O)N[C@H]2C(=O)N[C@H]3C(=O)N[C@H](C(=O)N[C@H](C(=O)O)c4cc(O)cc(O)c4-c4cc3ccc4O)[C@H](O)c3ccc(c(Cl)c3)Oc3cc2cc(c3O[C@@H]2O[C@H](CO)[C@@H](O)[C@H](O)[C@H]2O[C@H]2C[C@](C)(N)[C@H](O)[C@H](C)O2)Oc2ccc(cc2Cl)[C@H]1O [Vancomycin]
HPLC peak area in hemolymph ([1]; 0 min after injection): 6413329
HPLC peak area in hemolymph ([1]; 1 min after injection): 7258474
HPLC peak area in hemolymph ([1]; 5 min after injection): 5965159
HPLC peak area in hemolymph ([1]; 10 min after injection): 4477743
HPLC peak area in hemolymph ([1]; 15 min after injection): 4233708
HPLC peak area in hemolymph ([1]; 30 min after injection): 5070602
HPLC peak area in hemolymph ([1]; 45 min after injection): 4520231
HPLC peak area in hemolymph ([1]; 60 min after injection): 4399183
HPLC peak area in hemolymph ([1]; 90 min after injection): 3764336
HPLC peak area in hemolymph ([1]; 120 min after injection): 4979100
HPLC peak area in hemolymph ([1]; 180 min after injection): 4348972
HPLC peak area in hemolymph ([1]; 240 min after injection): 4148058
Time-course of the decrease in concentration in hemolymph (in words) [1]: biphasic
half-life [1]: 13 h
Cltot (total body clearance) [1]: 0.03 mL/g/h
Cltot [5]: 0.08 mL/g/h
Vdss [5]: 0.6 mL/g
t1/2 [5]: 2.6 h

Cn1c(=O)c2c(ncn2C)n(C)c1=O [Caffeine]
HPLC peak area of substrate, Sample 1 (cytochrome P450 [4]; [6]): 236597
HPLC peak area of substrate, Sample 2 (cytochrome P450 [4]; [6]): 235789
HPLC peak area of substrate, Sample 1 (cytochrome P450 [4]; [7]): 225184
HPLC peak area of substrate, Sample 2 (cytochrome P450 [4]; [7]): 213119
HPLC peak area of substrate, Sample 1 (cytochrome P450 [4]; [8]): 220757
HPLC peak area of substrate, Sample 2 (cytochrome P450 [4]; [8]): 220302
HPLC peak area of substrate, Sample 1 (cytochrome P450 [4]; [9]): 226873
HPLC peak area of substrate, Sample 2 (cytochrome P450 [4]; [9]): 222211

COc1ccc2[nH]c([S+]([O-])Cc3ncc(C)c(OC)c3C)nc2c1 (centres unmarked) [Omeprazole]
Metabolism in the silkworm midgut (in words) (cytochrome P450 [4]): metabolized in the silkworm midgut
HPLC peak area of substrate, Sample 1 (cytochrome P450 [4]; silkworm (Bombyx mori), 0 h): 141638
HPLC peak area of substrate, Sample 2 (cytochrome P450 [4]; silkworm (Bombyx mori), 0 h): 142171
HPLC peak area of substrate, Sample 1 (cytochrome P450 [4]; silkworm (Bombyx mori), 1 h): 117549
HPLC peak area of substrate, Sample 2 (cytochrome P450 [4]; silkworm (Bombyx mori), 1 h): 116381
HPLC peak area of substrate, Sample 1 (cytochrome P450 [4]; silkworm (Bombyx mori), 4 h): 57706
HPLC peak area of substrate, Sample 2 (cytochrome P450 [4]; silkworm (Bombyx mori), 4 h): 60668
HPLC peak area of substrate, Sample 1 (cytochrome P450 [4]; silkworm (Bombyx mori), 20 h): 8164
HPLC peak area of substrate, Sample 2 (cytochrome P450 [4]; silkworm (Bombyx mori), 20 h): 1815
